Test results from patent US20250332173A1, “COMPOUNDS AND METHODS FOR MODULATING NUCLEIC ACID SPLICING” (REMIX THERAPEUTICS INC., priority 2021, published 2025).
Like-named read-outs stand apart in the source and are kept apart here.

Tests used:
MYB mRNA = assay: RT-qPCR splicing assay, MYB canonical junction (CJ) and alternative junction (AJ) mRNA; type: cell-based, human; conditions: Homo sapiens; for AC50: increase in MYB alternative junction (AJ) mRNA, read-out: MYB AJ AC50
Method in brief: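 24 h treatment, 37 °C/5% CO2; A673 or K562; 11-pt 3-fold series, top 10 uM final; DMSO ≤0.25%. Cell lysis with DNase I, then 1-step RT-qPCR. Housekeeping normalization: PPIA (A673), GAPDH or GUSB (K562).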

SMN2 mRNA = assay: RT-qPCR splicing assay, SMN2 canonical junction (CJ) mRNA; type: cell-based, human; conditions: Homo sapiens
Method in brief: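 Cells are plated (A673 allowed 24 h to adhere), dosed with an 11-point 3-fold series topping at 10 uM final, and incubated 24 h at 37 °C. Lysis is followed by cDNA synthesis and qPCR of the CJ transcript, normalized to a housekeeping gene.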

[1] = canonical junction qPCR panel, Table 5, read-out: MYB (decrease in CJ mRNA levels, IC50)
[2] = decrease in MYB canonical junction (CJ) mRNA, RT-qPCR, read-out: MYB CJ IC50
[3] = canonical junction qPCR panel, Table 5, read-out: SMN2 (decrease in CJ mRNA levels, IC50)

| Structure (SMILES) | IC50 (MYB mRNA; [1]) | IC50 (MYB mRNA; [2]) | IC50 (SMN2 mRNA; [3]) | IC50 (MYB mRNA; Table 5 panel, canonical junction qPCR, compound concentration having 50% response in CJ decrease, read-out: MYB IC50 (decrease in CJ mRNA levels)) | IC50 (SMN2 mRNA; Table 5 panel, canonical junction qPCR, compound concentration having 50% response in CJ decrease, read-out: SMN2 IC50 (decrease in CJ mRNA levels)) | AC50 (MYB mRNA; RT-qPCR) |
| --- | --- | --- | --- | --- | --- | --- |
| Cc1c(O)c(-c2ncc3c(=O)n(C4CNC4)ccc3n2)cc2cn(C)nc12 [Compound 1305, 6-(azetidin-3-yl)-2-(6-hydroxy-2,7-dimethyl-indazol-5-yl)pyrido[4,3-d]pyrimidin-5-one] | 1 to 10 µM | 1 to 10 µM | < 0.1 µM |  |  | 1 to 10 µM |
| Cc1cn2nc(-c3ccc4c(c3F)CCN(C3CCNCC3)C4=O)cc(C)c2n1 [Compound 188] |  | 0.1 to 1 µM |  | 1 to 10 µM | < 0.1 µM | 1 to 10 µM |
| Cc1c(O)c(-c2ncc3c(=O)n(C4CCN(C)CC4)ccc3n2)cc2cn(C)nc12 [Compound 1304] | 0.1 to 1 µM | 0.1 to 1 µM | < 0.1 µM |  |  | 0.1 to 1 µM |
| Cn1cc2cc(-c3ccc4c(=O)n(C5CCNCC5)ccc4n3)cc(F)c2n1 [Compound 1231] | 0.1 to 1 µM | 0.1 to 1 µM | < 0.1 µM |  |  | 0.1 to 1 µM |
| Cn1cc2cc(-c3ccc4c(=O)n(C5CCNC6(CC6)C5)ccc4n3)c(O)cc2n1 (centres unmarked) [Compound 1242] | < 0.1 µM | < 0.1 µM | < 0.1 µM |  |  | < 0.1 µM |
| Cc1cn2cc(-c3ncc4c(=O)n(C5CCNCC5)ccc4n3)cc(C#N)c2n1 [Compound 1301] | 0.1 to 1 µM | 0.1 to 1 µM | < 0.1 µM |  |  | 0.1 to 1 µM |
| Cc1cn2nc(-c3ccc4c(=O)n(C5CCNCC5)ncc4n3)cc(C)c2n1 [Compound 1247] | < 0.1 µM | < 0.1 µM | < 0.1 µM |  |  | < 0.1 µM |

Now from value to compound, other results behind:

| IC50 (MYB mRNA; [1]) | IC50 (MYB mRNA; [2]) | IC50 (SMN2 mRNA; [3]) | IC50 (MYB mRNA; Table 5 panel, canonical junction qPCR, compound concentration having 50% response in CJ decrease, read-out: MYB IC50 (decrease in CJ mRNA levels)) | IC50 (SMN2 mRNA; Table 5 panel, canonical junction qPCR, compound concentration having 50% response in CJ decrease, read-out: SMN2 IC50 (decrease in CJ mRNA levels)) | Structure (SMILES) | AC50 (MYB mRNA; RT-qPCR) |
| --- | --- | --- | --- | --- | --- | --- |
| 0.1 to 1 µM | 0.1 to 1 µM | < 0.1 µM |  |  | Cc1cn2nc(-c3ccc4c(=O)n(C5CCN(CCF)CC5)ncc4n3)cc(C)c2n1 [Compound 1309] | 0.1 to 1 µM |
| 0.1 to 1 µM | < 0.1 µM | < 0.1 µM |  |  | Cc1c(O)c(-c2ncc3c(=O)n(C4CCNC(C)(C)C4)ccc3n2)cc2cn(C)nc12 (centres unmarked) [Compound 1442] | 0.1 to 1 µM |
| 0.1 to 1 µM | 0.1 to 1 µM | < 0.1 µM |  |  | CCN1CCC(n2ncc3nc(-c4cc(C)c5nc(C)cn5n4)ccc3c2=O)CC1 [Compound 1308] | 0.1 to 1 µM |
| 1 to 10 µM | > 10 µM | 0.1 to 1 µM |  |  | Cc1c(O)c(-c2ncc3c(=O)n([C@@H]4C[C@H]5C[C@@H]4CN5)ccc3n2)cc2cn(C)nc12 [Compound 1445, 6-[(1R,4R,5R)-2-azabicyclo[2.2.1]heptan-5-yl]-2(6-hydroxy-2,7-dimethyl-indazol-5-yl)pyrido[4,3-d]pyrimidin-5-one] | 1 to 10 µM |
| 0.1 to 1 µM | 0.1 to 1 µM | < 0.1 µM |  |  | Cc1c(O)c(-c2ncc3c(=O)n([C@H]4C[C@H](N)C4)ccc3n2)cc2cn(C)nc12 [Compound 1432, 6-((1r,3r)-3-aminocyclobutyl)-2-(6-hydroxy-2,7-dimethyl-2H-indazol-5-yl)pyrido[4,3-d]pyrimidin-5(6H)-one] | 0.1 to 1 µM |
| 0.1 to 1 µM | 0.1 to 1 µM | < 0.1 µM |  |  | Cc1c(O)c(-c2ccc3c(=O)n([C@@H]4CCNC4)ccc3n2)cc2cn(C)nc12 [Compound 1450, 2-(6-hydroxy-2,7-dimethyl-indazol-5-yl)-6-[(3R)-pyrrolidin-3-yl]-1,6-naphthyridin-5-one] | 0.1 to 1 µM |
| 0.1 to 1 µM | 0.1 to 1 µM | < 0.1 µM |  |  | Cc1cn2nc(-c3ccc4c(=O)n(C5CCN(C)CC5)ncc4n3)cc(C)c2n1 [Compound 1311] | 0.1 to 1 µM |
